Experimental data taken from patent US11066414B2, “Cot modulators and methods of use thereof” (Gilead Sciences, Inc., priority 2015, dated 2021).
Like-named read-outs stand apart in the source and are kept apart here.

Legend:
Human Cot = Human Cot (Homo sapiens (Human), UniProt P41279); assay: High Throughput Cot Biochemical Assay
TNFα = assay: Cot Monocyte TNFα Cell Based Assay
[1] = IC50 HTRF, Cot HTRF (TR-FRET) biochemical assay
[2] = IC50 HTRF, Cot HTRF (TR-FRET KinEASE) biochemical assay, 400 μM ATP
[3] = Homo sapiens, Monocyte, read-out: EC50 TNF, LPS-stimulated human monocytes, TNFα TR-FRET

Human Cot, sequence (P41279 30-397): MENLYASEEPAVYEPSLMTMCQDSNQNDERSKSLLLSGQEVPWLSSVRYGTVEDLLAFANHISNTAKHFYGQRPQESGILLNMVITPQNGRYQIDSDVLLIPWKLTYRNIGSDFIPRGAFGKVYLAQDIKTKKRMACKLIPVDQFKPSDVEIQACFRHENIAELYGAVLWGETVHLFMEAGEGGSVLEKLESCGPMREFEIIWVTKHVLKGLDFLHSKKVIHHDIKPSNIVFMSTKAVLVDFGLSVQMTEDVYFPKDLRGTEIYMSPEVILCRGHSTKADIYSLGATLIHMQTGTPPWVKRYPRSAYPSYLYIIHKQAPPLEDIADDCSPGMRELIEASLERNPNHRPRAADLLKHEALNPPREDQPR

For `CCc1ncccc1[C@H](Nc1cc(Cl)c2ncc(C#N)c(NCC(C)(C)C)c2c1)c1cn(C2(C(F)F)CC2)nn1` [Example 604, (S)-8-chloro-6-(((1-(1-(difluoromethyl)cyclo-propyl)-1H-1,2,3-triazol-4-yl)(2-ethylpyridin-3-yl)methyl)amino)-4-(neopentylamino)-quinoline-3-carbonitrile], the IC50 (Human Cot; [1]) was 3 nM.
Work on `CC(C)(C)CNc1c(C#N)cnc2c(Cl)cc(N[C@H](c3cn(C4(C)CC4)nn3)c3cccc4ncsc34)cc12` [Example 434, (S)-6-((benzo[d]thiazol-7-yl(1-(1-methylcyclopropyl)-1H-1,2,3-triazol-4-yl)methyl)amino)-8-chloro-4-(neopentylamino)quinoline-3-carbonitrile] yielded an IC50 (Human Cot; [1]) of 2 nM.
For `Cc1nc(F)ccc1[C@H](Nc1cc(C#N)c2ncc(C#N)c(NCC(C)(C)C)c2c1)c1nnn(C2(C3CC3)CC2)c1F` [Example 865], the IC50 (Human Cot; read-out: IC50 HTRF, Cot HTRF (TR-FRET KinEASE) biochemical assay, 400 μM ATP) was 4 nM.
Work on `Cc1nc(F)ccc1[C@H](Nc1cc(Cl)c2ncc(C#N)c(NCC(C)(C)C)c2c1)c1cn(C2(C(N)=O)CCC2)nn1` [Example 478, (S)-1-(4-(((8-chloro-3-cyano-4-(neopentylamino)quinolin-6-yl)amino)(6-fluoro-2-methylpyridin-3-yl)methyl)-1H-1,2,3-triazol-1-yl)cyclobutane-1-carboxamide] yielded an IC50 (Human Cot; [1]) of 1 nM.
Molecule `Cc1ncccc1[C@H](Nc1cc(Cl)c2ncc(C#N)c(Nc3ccc(F)c(Cl)c3)c2c1)c1cn(C(C)C)nn1` [Example 282, (S)-8-chloro-4-((3-chloro-4-fluorophenyl)amino)-6-(((1-isopropyl-1H-1,2,3-triazol-4-yl)(2-methylpyridin-3-yl)methyl)amino)-quinoline-3-carboni trile] has an IC50 (Human Cot; [1]) of 3 nM.
Work on `Cc1nc(F)ccc1[C@H](Nc1cc(Cl)c2ncc(C#N)c(NCC(C)(C)C(F)(F)F)c2c1)c1nnn(C2CC2)c1F` [Example 958, (S)-8-chloro-6-(((1-cyclopropyl-5-fluoro-1H-1,2,3-triazol-4-yl)(6-fluoro-2-methylpyridin-3-yl)methyl)amino)-4-((3,3,3-trifluoro-2,2-dimethylpropyl)amino)quinoline-3-carbonitrile] yielded an IC50 (Human Cot; [2]) of 2 nM.
For `Cn1c(=O)ccc2c([C@H](Nc3cc(Cl)c4ncc(C#N)c(NCC(C)(C)C)c4c3)c3cn(C45CC(C4)C5)nn3)cccc21` [Example 786, (S)-6-(((1-(bicyclo[1.1.1]pentan-1-yl)-1H-1,2,3-triazol-4-yl)(1-methyl-2-oxo-1,2-dihydroquinolin-5-yl)methyl)amino)-8-chloro-4-(neopentylamino)quinoline-3-carbonitrile], the IC50 (Human Cot; [1]) was 5 nM.
With `Cn1cc(C(Nc2cc(Cl)c3ncc(C#N)c(Nc4ccc(F)c(Cl)c4)c3c2)c2cccnc2)nn1` (stereo not shown) [Example 395, 8-chloro-4-((3-chloro-4-fluoro-phenyl)amino)-6-(((1-methyl-1H-1,2,3-triazol-4-yl)(pyridin-3-yl)methyl)amino)quinoline-3-carbonitrile] the IC50 (Human Cot; [1]) was 4 nM.
`COc1c([C@@H](Nc2cc(C#N)c3ncc(C#N)c(NCC(C)(C)C)c3c2)c2ccc(F)nc2C)nnn1C1CC1` [Example 859, (S)-6-(((1-cyclopropyl-5-methoxy-1H-1,2,3-triazol-4-yl)(6-fluoro-2-methylpyridin-3-yl)methyl)amino)-4-(neopentylamino)quinoline-3,8-dicarbonitrile] gave an IC50 (Human Cot; [2]) of 2 nM.
Molecule `CC(C)(C)CNc1c(C#N)cnc2c(C#N)cc(N[C@H](c3cn(C4(C(F)(F)F)CC4)nn3)c3csc4cnccc34)cc12` [Example 855, (S)-4-(neopentylamino)-6-((thieno[2,3-c]pyridin-3-yl(1-(1-(trifluoro-methyl)cyclopropyl)-1H-1,2,3-triazol-4-yl)methyl)-amino)quinoline-3,8-dicarbonitrile] has an IC50 (Human Cot; [2]) of 2 nM.
With `CC(C)(C)CNc1c(C#N)cnc2c(Cl)cc(N[C@H](c3cn(C4(C(F)F)CC4)nn3)c3ccc(F)c4ncccc34)cc12` [Example 653, (S)-8-chloro-6-(((1-(1-(difluoromethyl)cyclopropyl)-1H-1,2,3-triazol-4-yl)(8-fluoroquinolin-5-yl)methyl)amino)-4-(neopentylamino)quinoline-3-carbonitrile] the IC50 (Human Cot; [1]) was 4 nM.
In the case of `Cc1nc(F)ccc1[C@H](Nc1cc(Cl)c2ncc(C#N)c(NCC(C)(C)C)c2c1)c1nnn(C23CC(C2)C3)c1F` [Example 951, (S)-6-(((1-(bicyclo[1.1.1]pentan-1-yl)-5-fluoro-1H-1,2,3-triazol-4-yl)(6-fluoro-2-methylpyridin-3-yl)methyl)amino)-8-chloro-4-(neopentylamino)quinoline-3-carbonitrile], the IC50 (Human Cot; [2]) is reported as 9 nM.
`N#Cc1cnc2c(Cl)cc(N[C@H](c3cn(C4CCNCC4)nn3)c3ccc(Cl)s3)cc2c1Nc1ccc(F)c(Cl)c1` [Example 386, (R)-8-chloro-4-((3-chloro-4-fluoro-phenyl)amino)-6-(((5-chlorothiophen-2-yl)(1-(piperidin-4-yl)-1H-1,2,3-triazol-4-yl)methyl)amino)quinoline-3-carbonitrile] showed an IC50 (Human Cot; [1]) of 36 nM.
`CC(C)(C)CNc1c(C#N)cnc2c(Cl)cc(N[C@H](c3cn(C4(CO)CC4)nn3)c3cccc4ncsc34)cc12` [Example 458, (S)-6-((benzo[d]thiazol-7-yl(1-(1-(hydroxymethyl)cyclopropyl)-1H-1,2,3-triazol-4-yl)methyl)amino)-8-chloro-4-(neopentylamino)quinoline-3-carbonitrile] gave an IC50 (Human Cot; [1]) of 4 nM.
With `Cc1ncsc1[C@H](Nc1cc(C#N)c2ncc(C#N)c(NCC(C)(C)C)c2c1)c1cn(C2(C3CC3)CC2)nn1` [Example 903, (R)-6-(((1-([1,1′-bi(cyclopropan)]-1-yl)-1H-1,2,3-triazol-4-yl)(4-methylthiazol-5-yl)methyl)amino)-4-(neopentylamino)quinoline-3,8-dicarbonitrile] the EC50 (TNFα; [3]) was 36 nM.
For `CC(C)(C)CNc1c(C#N)cnc2c(Cl)cc(N[C@H](c3cn(C4(C(F)(F)F)CC4)nn3)c3cccn4cncc34)cc12` [Example 599, (S)-8-chloro-6-((imidazo[1,5-a]pyridin-8-yl(1-(1-(trifluoromethyl)cyclopropyl)-1H-1,2,3-triazol-4-yl)methyl)amino)-4-(neopentylamino)quinoline-3-carbonitrile], the EC50 (TNFα; Homo sapiens, Monocyte, read-out: EC50 TNF, LPS-stimulated human monocytes, TNFα) was 316 nM.
`Cn1ccc2c([C@H](Nc3cc(Cl)c4ncc(C#N)c(NCC(C)(C)C)c4c3)c3nnn(C45CC(C4)C5)c3F)cccc2c1=O` [Example 961, (S)-6-(((1-(bicyclo[111]pentan-1-yl)-5-fluoro-1H-1,2,3-triazol-4-yl)(2-methyl-1-oxo-1,2-dihydroisoquinolin-5-yl)methyl)amino)-8-chloro-4-(neopentylamino)quinoline-3-carbonitrile] showed an EC50 (TNFα; read-out: EC50 TNF, LPS-stimulated human monocytes, TNFα TR-FRET) of 48 nM.
For `CC(C)(C)CNc1c(C#N)cnc2c(C#N)cc(N[C@H](c3cn(C4(C(F)F)CC4)nn3)c3cccc4cnccc34)cc12` [Example 551], the EC50 (TNFα; read-out: EC50 TNF, LPS-stimulated human monocytes, TNFα) was 27 nM.
`Cn1cccc([C@H](Nc2cc(C#N)c3ncc(C#N)c(NCC(C)(C)C)c3c2)c2cn(C3(C(F)(F)F)CC3)nn2)c1=O` [Example 844, (S)-6-(((1-methyl-2-oxo-1,2-dihydropyridin-3-yl)(1-(1-(trifluoromethyl)cyclopropyl)-1H-1,2,3-triazol-4-yl)methyl)amino)-4-(neopentylamino)quinoline-3,8-dicarbonitrile] showed an EC50 (TNFα; [3]) of 417 nM.
